What was measured:
[1] = system: Ctenocephalides felis; test: Ctenocephalides felis - oral test; type: in vivo; conditions: application rate 100 ppm in citrated cattle blood; after 2 days
Outline: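 Roughly 20 unfed adult C. felis imbibe compound-dosed citrated cattle blood (DMSO formulation) across parafilm from a cylinder above their gauze chamber; percentage mortality recorded at day 2.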

[2] = system: Rhipicephalus sanguineus; test: Rhipicephalus sanguineus - in vitro contact tests with adult brown dog ticks; type: in vivo; conditions: after 48 h, ticks dead or moribund
Outline: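 Efficacy, scored after 48 h, is the % of adult ticks dead or moribund, i.e. unable to climb away on a 45-50° C hotplate within 5 min. Tubes held 5-10 ticks in the dark at room temperature, on an acetone-applied coating of 5 μg/cm^2 (900 ppm solution).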

[3] = system: Musca domestica; test: Musca domestica test; type: in vivo; conditions: application rate 100 ppm; adult houseflies; after 2 days
Outline: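 10 adult flies per vessel; sugar-solution sponge dosed with active ingredient formulation (DMSO concentrate diluted in water to desired concentration). Read-out: % kill at 2 days.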

[4] = system: Amblyomma hebraeum; test: Amblyomma hebaraeum test (tick nymphs, immersion); type: in vivo; conditions: application rate 100 ppm; tick nymphs immersed one minute; after 42 days
Outline: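 Mortality (%) is read 42 days post-treatment, where 0% means no ticks and 100% all ticks killed. Nymphs were dipped for 1 min into the test dilution (DMSO stock diluted with water) and afterwards stored on filter paper under controlled climate.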

[5] = system: Tetranychus urticae; test: Tetranychus urticae - spray test, OP-resistant; type: in vivo; conditions: bean leaf discs, after 6 days
Outline: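 Mortality (%) read on day 6 after spraying Phaseolus vulgaris leaf discs carrying all mite stages with formulations at the desired concentration. Formulation: active ingredient in acetone plus dimethylformamide, made up with emulsifier-containing water (1000 ppm alkylaryl polyglycol ether).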

[6] = system: Lucilia cuprina; test: Lucilia cuprina test; type: in vivo; conditions: application rate 100 ppm; L1 larvae; after 2 days
Outline: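 Mortality (%) of first-instar blowfly larvae, about 20 per vessel, recorded 2 days after exposure to compound-treated minced horsemeat. Compound dissolved in dimethyl sulphoxide, then water-diluted to the desired concentration.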

[7] = logP determination by HPLC on a reversed-phase column (C18); type: physicochemical; conditions: for logP^a): HPLC-MS method a); for logP^a) / log P: reversed-phase column (C18); for log P: HPLC-MS, Table I-T3; for logP: HPLC, C18 reversed phase, acetonitrile/water with formic acid, EEC Directive 79/831 Annex V.A8
[8] = system: Ctenocephalides felis; test: Ctenocephalides felis - in vitro contact tests with adult cat fleas; type: in vivo; conditions: application rate 5 μg/cm2 (=500 g/ha); after 48 h; fleas dead or moribund
Outline: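 Efficacy, as percentage of fleas dead or moribund, was scored at 48 h by knocking fleas to the tube base. Exposure was by contact with a dried acetone film of compound at 5 μg/cm^2 area dose; 5–10 adults per tube, room temperature, ambient humidity.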

[9] = system: Myzus persicae; test: Myzus persicae - spray test; type: in vivo; conditions: Chinese cabbage leaf discs, after 6 days
Outline: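 Mortality of the green peach aphid, as % killed, was read 6 days after spraying infested Brassica pekinensis leaf discs. Compound formulated in acetone/dimethylformamide and made up with emulsifier-containing (1000 ppm) water.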

[10] = system: Boophilus microplus Parkhurst strain, SP-resistant; test: Boophilus microplus - dip test; type: in vivo; conditions: application rate 100 ppm; dip of engorged adult female ticks; after 7 days
Outline: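 Compound dissolved in DMSO, diluted with water, and used to fully wet groups of 8-10 engorged female cattle ticks (SP-resistant Parkhurst strain). Fertile egg laying assessed at 7 days, doubtful eggs held ~42 days until hatch; 0% means all eggs fertile.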

[11] = system: Spodoptera frugiperda; test: Spodoptera frugiperda - spray test; type: in vivo; conditions: caterpillars on maize leaf discs, after 7 days
Outline: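 Percent mortality of Spodoptera frugiperda caterpillars scored 7 days after placing them on dried maize leaf discs sprayed at the desired concentration. Spray formulation: compound dissolved in acetone/dimethylformamide, made up with water containing 1000 ppm emulsifier.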

[12] = system: Boophilus microplus; test: Boophilus microplus - injection test; type: in vivo; conditions: application rate 20 μg/animal, injection into engorged adult female ticks, after 7 days
Outline: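 Five engorged adult female cattle ticks each received a 1 μl abdominal injection of compound solution in dimethyl sulphoxide. Fertile egg laying was assessed at 7 days, with doubtful eggs incubated about 42 days until hatch. 0% efficacy means all eggs fertile.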

[13] = system: Phaedon cochleariae; test: Phaedon cochleariae - spray test; type: in vivo; conditions: larvae on Chinese cabbage leaf discs, after 7 days
Outline: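 Mortality of mustard beetle larvae was scored as % at day 7 on Brassica pekinensis leaf discs. Discs had been treated by spraying at the desired concentration, using an acetone/dimethylformamide solution diluted in water with 1000 ppm alkylaryl polyglycol ether, and dried before larvae were added.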

[14] = system: Meloidogyne incognita; test: Meloidogyne incognita test; type: in vivo; conditions: application rate 20 ppm; lettuce; after 14 days
Method: Solvent: 125.0 parts by weight of acetone
To produce an appropriate active ingredient formulation, 1 part by weight of active ingredient is mixed with the stated amount of solvent and the concentrate is diluted with water to the desired concentration.
Vessels are filled with sand, active ingredient solution, an egg/larvae suspension of the southern root-knot nematode (Meloidogyne incognita) and lettuce seeds. The lettuce seeds germinate and the plants develop. The galls develop on the roots.
After 14 days, the nematicidal efficacy in % is determined by the formation of galls. 100% means that no galls were found; 0% means that the number of galls on the treated plants corresponds to the untreated control.

[15] = system: Aedes aegypti strain MONHEIM; test: Aedes test (AEDSAE surface treatment); type: in vivo; conditions: read-out: efficacy (mortality)
Method: (§1) Solvent: acetone+2000 ppm rapeseed oil methyl ester (RME)
(§2) To produce an appropriate active ingredient formulation, the active ingredient is dissolved in the solvent (2 mg/ml). The active ingredient formulation is pipetted onto a glazed tile and, after it has dried off, adult mosquitoes of the species Aedes aegypti strain MONHEIM are placed onto the treated tile. The exposure time is 30 minutes.
(§3) 24 hours after contact with the treated surface, mortality in % is determined. 100% means that all mosquitoes have been killed; 0% means that none of the mosquitoes have been killed.

[16] = system: Anopheles funestus strain FUMOZ-R; test: Anopheles test (ANPHFU surface treatment); type: in vivo; conditions: read-out: efficacy (mortality)
Method: as §1
as §2, with “Anopheles funestus” for “Aedes aegypti”, “FUMOZ-R (Hunt et al., Med Vet Entomol. 2005 September; 19 (3):271-5)” for “MONHEIM”
as §3

| SMILES | efficacy (kill) [1] [%] | efficacy (kill) [3] [%] | efficacy (kill) [4] [%] | efficacy ([5]; application rate 500 g/ha) [%] | efficacy (kill) [6] [%] | logP^a) [7] | log P [7] | efficacy [8] [%] | efficacy ([9]; application rate 500 g/ha) [%] | efficacy (laying of fertile eggs) [10] [%] | efficacy ([11]; application rate 500 g/ha) [%] | efficacy (laying of fertile eggs) [12] [%] | efficacy ([13]; application rate 500 g/ha) [%] | efficacy ([2]; application rate 5 μg/cm2) [%] | efficacy ([5]; application rate 100 g/ha) [%] | efficacy ([9]; application rate 100 g/ha) [%] | efficacy ([11]; application rate 100 g/ha) [%] | efficacy ([13]; application rate 100 g/ha) [%] | further results |
| --- | --- | --- | --- | --- | --- | --- | --- | --- | --- | --- | --- | --- | --- | --- | --- | --- | --- | --- | --- |
| N#CC1(NC(=O)c2cc(-c3cnn(-c4c(Cl)cc(C(F)(C(F)(F)F)C(F)(F)F)cc4C(F)(F)F)c3)cnc2Cl)CC1 [I-T3-114] | 100 | 100 | 100 | 100 | 100 | 4.0 | 4.0 | 100 | 90 | 100 | 100 | 100 | 100 |  |  |  |  |  | efficacy ([2]; application rate 1 μg/cm2): 100% |
| Cc1cc(C(F)(C(F)(F)F)C(F)(F)F)cc(C(F)(F)F)c1-n1cc(-c2cnc(C)c(C(=O)NC3CC3)c2)cn1 [I-T3-117] | 100 | 100 | 100 | 90 | 100 | 3.5 | 3.5 | 100 | 90 | 100 | 100 | 100 | 100 | 100 |  |  |  |  |  |
| Cc1cc(C(F)(C(F)(F)F)C(F)(F)F)cc(C(F)(F)F)c1-n1cc(-c2cnc(C)c(C(=O)NC3(C#N)CC3)c2)cn1 [I-T3-119] | 100 | 100 | 100 | 100 | 100 | 3.6 | 3.6 | 100 | 90 | 100 | 100 | 100 | 100 | 100 |  |  |  |  |  |
| Cc1cc(C(F)(C(F)(F)F)C(F)(F)F)cc(C(F)(F)F)c1-n1cc(-c2cnc(C)c(C(=O)N(C)C3(C#N)CC3)c2)cn1 [I-T3-123] | 100 | 100 | 80 |  | 100 | 3.9 | 3.9 | 100 |  | 100 |  | 100 |  |  | 90 | 100 | 100 | 100 | efficacy ([2]; application rate 1 μg/cm2): 80% |
| O=C(NC1CC1)c1cc(-c2cnn(-c3c(Cl)cc(C(F)(C(F)(F)F)C(F)(F)F)cc3OC(F)(F)F)c2)ccc1Cl [I-T3-162] | 100 | 100 | 100 |  | 100 | 4.6 | 4.6 | 100 |  | 100 |  | 100 |  | 100 | 100 | 100 | 100 | 100 |  |
| N#CC1(NC(=O)c2cc(-c3cnn(-c4c(Cl)cc(C(F)(C(F)(F)F)C(F)(F)F)cc4OC(F)(F)F)c3)ccc2Cl)CC1 [I-T3-163] | 100 | 100 | 100 |  | 100 | 4.5 | 4.5 | 100 |  | 100 |  | 100 |  | 100 | 100 | 90 | 100 | 100 |  |
| O=C(NC1CC1)c1cc(-c2cnn(-c3c(Cl)cc(C(F)(F)F)c(F)c3Cl)c2)ccc1Cl [I-T3-184] |  |  |  | 100 |  |  | 3.6 |  |  |  | 100 |  | 100 |  |  | 100 |  |  | nematicidal efficacy (formation of galls) [14]: 90% |
| N#CC1(NC(=O)c2cc(-c3cnn(-c4c(Cl)cc(C(F)(F)F)c(F)c4Cl)c3)ccc2Cl)CC1 [I-T3-185] |  |  |  | 100 |  |  | 3.6 |  | 100 |  | 100 |  | 100 |  |  |  |  |  | nematicidal efficacy (formation of galls) [14]: 90% |
| Cc1cc(C(F)(C(F)(F)F)C(F)(F)F)cc(C)c1-c1cc(-c2ccc(Cl)c(C(=O)NC3(C#N)CC3)c2)on1 [I-T22-2] | 100 | 100 | 100 |  | 100 |  |  | 100 |  | 100 |  | 100 |  | 100 | 90 | 100 | 100 | 100 | logP [7]: 4.6 |
| O=C(NC1CC1)c1cc(-c2cc(-c3c(Cl)cc(C(F)(C(F)(F)F)C(F)(F)F)cc3Cl)on2)ccc1Cl [I-T23-1, 2-chloro-N-cyclopropyl-5-[5-[2,6-dichloro-4-[1,2,2,2-tetrafluoro-1-(trifluoromethyl)ethyl]phenyl]isoxazol-3-yl]benzamide] |  | 100 | 100 |  |  |  |  | 100 |  | 100 |  |  |  |  |  |  |  |  | logP [7]: 5.0; pest or weed control at 0.02 mg ([12]; Rhipicephalus microplus, 168 h, read-out: efficacy (laying of fertile eggs)): 100%; mortality at 20 mg/m2 [15]: 90 to 100%; mortality at 100 mg/m2 [15]: 90 to 100%; mortality at 20 mg/m2 [16]: 90 to 100% |
